Where a name gives a salt, the structure may show the parent alone.

Our source for the melting point and Ki values is PMC6832503, “Synthesis of Novel Nicotinic Ligands with Multimodal Action: Targeting Acetylcholine α4β2, Dopamine and Serotonin Transporters” (Molecules, 2019).

System in the first data set: not given
Details: not given
Turning to `CN1CCC[C@H]1COC(=O)c1cccc(Br)c1` (as salt: hydrochloride) [Compound 4, (S)-(1-Methyl-2-pyrrolidinyl)methyl 3-bromobenzoate], the melting point (commonly the temperature, or range, at which the solid turns liquid) fell in the range of 99 to 101.4 °C.
Regarding `Cc1ccccc1C(=O)OC[C@@H]1CCCN1C` (as salt: hydrochloride) [Compound 5, (S)-(1-Methyl-2-pyrrolidinyl)methyl 2-methylbenzoate], the melting point was in the range of 130.5 to 131.6 °C.
Same read-out and setting: as for `CN1CCC[C@H]1COC(=O)c1ccc2ccccc2c1` (as salt: hydrochloride) [Compound 18, (S)-(1-Methyl-2-pyrrolidinyl)methyl 2-naphthoate], the figure is 125.5 to 127.1 °C.
The same measure, in the same setting: the value for `CN1CCCC1CCOC(=O)c1ccccc1` (racemic) (as salt: hydrochloride) [Compound 7, (±)-2-(1-Methyl-2-pyrrolidinyl)ethyl benzoate] was 88.6 to 89.1 °C; that for `CN1CCCC1CCOC(=O)c1cccc(F)c1` (racemic) (as salt: hydrochloride) [Compound 8, (±)-2-(1-Methyl-2-pyrrolidinyl)ethyl 3-fluorobenzoate] was 106.8 to 107.5 °C; that for `CN1CCCC1CCOC(=O)c1cccc(Cl)c1` (racemic) (as salt: hydrochloride) [Compound 9, (±)-2-(1-Methyl-2-pyrrolidinyl)ethyl 3-chlorobenzoate] was 144.7 to 146.2 °C.
Regarding `CN1CCCC1CCOC(=O)Cc1ccccc1` (racemic) (as salt: hydrochloride) [Compound 16, (±)-2-(-1-Methyl-2-pyrrolidinyl)ethyl 2-phenylacetate], the melting point fell in the range of 86.7 to 87.4 °C.
Consider `CN1CCCC1CCOC(=O)c1ccc2ccccc2c1` (racemic) (as salt: hydrochloride) [Compound 19, (±)-2-(1-Methyl-2-pyrrolidinyl)ethyl 2-naphthoate], for which the melting point was 155.6 to 157.4 °C.
Turning to `CN1CCCC1CCOC(=O)C(c1ccccc1)c1ccccc1` (racemic) (as salt: hydrochloride) [Compound 21, (±)-2-(-1-Methyl-2-pyrrolidinyl)ethyl 2,2-diphenylacetate], the melting point lay within 115.3 to 117.2 °C.

In a further data set the target is T1, α4β2 nAChR (Rattus norvegicus, UniProt P09483+P12390).
T1 construct: the rat complete brain P1 fraction (occupying 2 mg of wet tissue for each assay); from tissue; host or cells: whole rat brain, synaptosome pellet (fraction P1)
T1 sequence (P09483 31-630): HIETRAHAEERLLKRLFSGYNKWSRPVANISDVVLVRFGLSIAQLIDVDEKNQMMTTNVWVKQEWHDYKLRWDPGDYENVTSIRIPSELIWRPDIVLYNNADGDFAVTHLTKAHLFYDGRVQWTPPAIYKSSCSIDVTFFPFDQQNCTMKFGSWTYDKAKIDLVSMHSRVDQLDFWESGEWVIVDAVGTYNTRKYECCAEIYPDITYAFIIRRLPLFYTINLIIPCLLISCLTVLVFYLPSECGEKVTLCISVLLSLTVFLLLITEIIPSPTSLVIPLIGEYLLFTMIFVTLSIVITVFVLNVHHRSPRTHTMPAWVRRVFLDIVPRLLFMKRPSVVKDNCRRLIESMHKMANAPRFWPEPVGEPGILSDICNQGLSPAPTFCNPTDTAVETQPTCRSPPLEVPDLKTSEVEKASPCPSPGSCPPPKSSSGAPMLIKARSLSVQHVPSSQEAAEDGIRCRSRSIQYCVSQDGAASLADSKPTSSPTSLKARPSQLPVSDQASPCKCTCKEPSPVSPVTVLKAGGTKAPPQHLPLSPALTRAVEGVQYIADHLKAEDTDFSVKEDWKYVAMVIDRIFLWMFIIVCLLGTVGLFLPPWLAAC
T1 sequence (P12390 25-500): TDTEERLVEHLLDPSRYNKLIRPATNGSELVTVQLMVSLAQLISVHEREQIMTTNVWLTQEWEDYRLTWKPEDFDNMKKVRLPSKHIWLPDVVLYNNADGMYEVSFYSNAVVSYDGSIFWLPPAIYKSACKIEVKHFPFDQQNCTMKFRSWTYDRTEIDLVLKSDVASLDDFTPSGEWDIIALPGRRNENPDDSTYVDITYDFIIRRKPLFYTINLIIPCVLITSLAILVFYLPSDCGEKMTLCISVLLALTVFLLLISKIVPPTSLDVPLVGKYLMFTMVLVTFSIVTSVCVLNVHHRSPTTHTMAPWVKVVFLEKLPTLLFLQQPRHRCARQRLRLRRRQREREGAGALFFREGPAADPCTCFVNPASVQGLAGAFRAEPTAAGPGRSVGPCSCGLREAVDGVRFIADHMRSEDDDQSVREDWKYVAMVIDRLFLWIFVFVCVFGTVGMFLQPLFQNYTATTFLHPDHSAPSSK
The following applies: bupropion included as comparative value, not used in the trial; cited from earlier work.
Turning to `CC(NC(C)(C)C)C(=O)c1cccc(Cl)c1` (stereo not shown) [Bupropion], the Ki (in general, a measure of affinity in units of concentration, obtained from inhibition or displacement) was 10 µM.
